We go through six compounds from patent publication US20090318514A1, “Novel Pharmaceutical Compositions” (priority 2006, published 2009).

pIC50: −log10 of the molar value.

One experiment concerns the target T1, hTRβ (Homo sapiens, UniProt P10828).
T1 sequence (P10828 1-461): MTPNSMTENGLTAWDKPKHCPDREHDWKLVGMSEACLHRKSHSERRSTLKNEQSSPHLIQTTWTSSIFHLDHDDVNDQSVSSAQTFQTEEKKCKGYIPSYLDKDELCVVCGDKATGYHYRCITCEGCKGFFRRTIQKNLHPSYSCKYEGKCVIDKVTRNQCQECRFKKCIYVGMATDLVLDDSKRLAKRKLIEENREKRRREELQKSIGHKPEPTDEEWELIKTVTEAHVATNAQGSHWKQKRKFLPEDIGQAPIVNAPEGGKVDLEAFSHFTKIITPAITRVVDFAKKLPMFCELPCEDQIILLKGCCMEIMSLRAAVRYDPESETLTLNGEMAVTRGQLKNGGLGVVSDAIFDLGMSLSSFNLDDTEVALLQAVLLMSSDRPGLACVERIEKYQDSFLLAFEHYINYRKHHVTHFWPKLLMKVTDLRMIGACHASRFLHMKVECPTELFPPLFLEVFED
Briefly: TR competition binding assay with filter separation. The settings on record: competition with 125I-T3 tracer, full length hTRβ; read-out: TR-β IC50. Here is the method:
TR Competition Binding Assay with Filter Separation
Compounds are tested for their ability to compete with the tracer ^125I-T3 for binding to full length hTRα and hTRβ. Receptor extracts and tracer are diluted in assay buffer (17 mM K2HPO4, 3 mM KH2PO4, 400 mM KCl, 1 mM MgCl2, 0.5 mM EDTA and 8.7% glycerol). ^125I-T3 is diluted to a final concentration of 0.2 nM and receptor is diluted to reach a final count in Trilux Microbeta of approximately 10000 ccpm. Compounds are typically serially diluted in DMSO from DMSO stock solutions of 10 mM. To 96 well microtiter plates are 100 μl tracer, 4 μl test compound dilution series and 100 μl receptor dilution added. The assay plates are incubated at +4° C. overnight (app. 16 h incubation). Receptor bound and free tracer are separated over a glass fiber filter (FILTERMAT B, PerkinElmer) on a Tomtec Cellharvester with 18 mM K2HPO4, 2 mM KH2PO4, 0.5 mM EDTA wash buffer. The filters are dried at 60° C. for 1 h and then merged with a scintillant wax (MELTILEX, PerkinElmer) on a Wallac Microsealer before measuring in a Trilux Microbeta. IC50s, the concentration test compound needed to decrease tracer binding by 50 percent, are generated via analysis of data in XLfit version 2.0 or later with a four parameter logistic model.

Another experiment addresses T2, CHO/hThRβ1 (Homo sapiens, UniProt P10828).
T2 construct: The cDNAs encoding the full length human ThRα1 and ThRβ1 were cloned; expressed in transfected cells
T2 sequence (P10828 1-461): T1 sequence (P10828 1-461)
Put plainly: Reporter cell line (TRAF) assay, agonist activity. The settings on record: CHO/hThRβ1 reporter cells, alkaline phosphatase readout after 48 hours. Type of experiment: cell-based. From the text: Vector Constructs, Generation of Reporter Cell Lines (TRAF), and Assay Procedure.
The cDNAs encoding the full length human ThRα1 and ThRβ1 were cloned in the mammalian expression vector pMT-hGH. The pDR4-ALP reporter vector contains one copy of the direct repeat sequence AGGTCA nnnnAGGTCA, fused upstream of the core promoter sequences of the mouse mammary tumor virus long terminal repeat (MMTV), replacing the glucocorticoid response elements. The DR4-MMTV promoter fragment was then cloned in the 5′ end of the cDNA encoding human placental alkaline phosphatase (ALP), followed in the 3′-end by the polyA-signal sequence of the human growth hormone gene. Chinese hamster ovary (CHO) K1 cells (ATCC No. CCL 61) were transfected in two steps, first with the receptor expression vectors pMT-hThRα1 and pMT-THRβ1, respectively, and the drug resistance vector pSV2-Neo, and in the second step, with the reporter vector pDR4-ALP and the drug resistance vector pKSV-Hyg. Individual drug resistant clones were isolated and selected based on T3 inducibility. One stable reporter cell clone each of CHO/hThRα1 and CHO/hThRβ1 were chosen for further study in response to various thyroid hormone agonists.
CHO/hThRα1 and CHO/hThRβ1 were seeded in growth medium (Coon's/F12, 10% L-3,5,3′-triiodothyronine and L-thyroxine depleted FCS, 2 mM L-glutamine) in 96-well plates at 20×10^3 cells per well. After 24 hour incubation at 37° C. in humidified chambers, at 5% CO2, conditioned medium was replaced by induction medium (OptiMEM, 2 mM L-glutamine, 50 μm/mL gentamycin) and cells were exposed to the test compounds at serial dilutions, at final DMSO concentration of 0.5% , or to serial dilution of T3 (positive control), to assess agonist activity of test compounds.
After 48 hours incubation at 37° C. in humidified chambers at 5% CO2 the level of alkaline phosphatase expressed and secreted into the cell culture medium was analyzed by chemiluminescence on MicroBeta Trilux.
The assay procedure described above was carried out for the compounds of Examples 1 to 40, 43-44 and 47-48.

What is called pIC50 is −log10 of the IC50, conventionally taken in molar units. Take `Cc1cccc(-c2nc3cc(Oc4c(Br)cc(CCC(=O)O)cc4Br)ccc3[nH]2)c1` [Example 11, 3-(3,5-dibromo-4-{[2-(3-methylphenyl)-1H-benzimidazol-5-yl]oxy}phenyl)propanoic acid]: the negative-log IC50 (pIC50) at hTRβ is 8.62. This compound also came in with a β % agonism at CHO/hThRβ1 of 99%.
On to `CC(C)Cc1nc2cc(Oc3c(Br)cc(CC(F)C(=O)O)cc3Br)ccc2[nH]1` (racemic) [Example 10, 3-(3,5-dibromo-4-{[2-isobutyl-1H-benzimidazol-5-yl]oxy}phenyl)-2-fluoropropanoic acid], for which the pIC50 at hTRβ was 9.85. On CHO/hThRβ1, this compound yielded a β % agonism of 100%.
Turning to `O=C(O)CCCc1cc(Br)c(Oc2ccc3[nH]c(-c4ccc(F)cc4)nc3c2)c(Br)c1` [Example 5, 4-(3,5-dibromo-4-{[2-(4-fluorophenyl)-1H-benzimidazol-5-yl]oxy}phenyl)butanoic acid], the pIC50 at hTRβ is 8.26. The compound also had a β % agonism on CHO/hThRβ1 of 91%.
With `CC(C)(C)Cc1nc2cc(Oc3c(Br)cc(OCC(=O)O)cc3Br)ccc2[nH]1` [Example 15, {3,5-dibromo-4-{[2-(2,2-dimethylpropyl)-1H-benzimidazol-5-yl)oxy]phenoxy}acetic acid], at hTRβ, the pIC50 is 8.77. This compound also showed a β % agonism on CHO/hThRβ1 of 70%.
For `Cc1nc(-c2nc3cc(Oc4c(Br)cc(CC(F)C(=O)O)cc4Br)ccc3[nH]2)c(C)o1` (stereo not drawn) [Example 32, 3-{3,5-Dibromo-4-[2-(2,5-dimethyl-oxazol4-yl)-1H-benzoimidazol-5-yloxy]-phenyl}-2-fluoropropionic acid] the same measures were 9.31 and 75%.
For `CCCc1nc2cc(Oc3c(Br)cc(OCC(=O)O)cc3Br)ccc2[nH]1` [Example 17] the same measures were 8.12 and 70%.
